# From patent US7205383B2, “Peptide ligands of leukocyte integrins” (Karyon-CTT Ltd., priority 2001, dated 2007)
# Ends that are not written are not given here.
# Assays:
# [1] = system: αXβ2 integrin-transfected L cells; experiment: Adhesion of αXβ2 integrin-transfected L cells to LLG-C4-GST; format: cell-based, mouse
# Description: (§1) Fibrinogen, fibronectin, von Wrlnebrand factor, type IV collagen, GST fusion proteins, Fc fusion proteins or synthetic peptides were coated on microtiter wells at a concentration of 2 μg in 50 μl TBS unless otherwise indicated. A recombinant von Willebrand factor and a capturing antibody to it kindly provided by Drs. J. J. Sixma and Ph. G. de Groot (University Medical Center Utrecht, the Netherlands) were also used. To prepare polymerized peptides, glutaraldehyde was added at a final concentration of 0.25%. The wells were saturated with 5% BSA and then washed five times with PBS. Prior to adhesion assays, cells were treated with 50 nM 40-Phorbol 12,13-dibutyrate or with 200 μM P1 peptide (Kotovuori et al., 1999) in serum-free medium for 30 min at room temperature to activate the integrins. Alternatively, cells were stimulated for 60 min at 37° C. with the phorbol ester (50 nM) and the C(1–8;3–9) and RGD-4C peptides each at a 2.5 μM concentration, after which the peptides were removed by washing with PBS/2.5 mM EDTA. Cells were incubated in the microtiter wells (100 000 cells per well) for 60 min at 37° C. in the absence or presence of competing peptides, antibodies or EDTA. […] The bound cells were determined by an assay measuring cellular phosphatase activity. […] The absorbance at 405 nm was read on a microplate reader. […]
# αMβ2 integrin = target: T1, αMβ2 integrin (Homo sapiens, UniProt P11215); experiment: Integrin binding assay, immunocaptured integrin (MEM170 or OKM1); settings: for binding of GST protein to immunocaptured αMβ2 integrin: 10 μg/ml, 1 mM MnCl2, integrin captured with MEM170 or OKM1, anti-GST detection
# T1 construct: integrin from a blood cell lysate was immunocaptured on microtiter wells; from tissue; host or cells: blood buffy coat lysate in octylglucoside
# Description: Purified LLG-C4-GST or GST control (2 μg/well) was allowed to bind for 60 min in the absence or presence of EDTA. After washing, the bound GST protein was determined by using anti-GST antibodies. […] The experiment was repeated three times with similar results.
# (§2) Integrin was immunocaptured on microtiter wells that were coated with the αM subunit antibodies OKM1 or MEM170, the αx subunit antibody TS2/4 or non-specific IgG (Dako, Carpinteria, Calif.). The antibodies were coated at a concentration of 10 μg/ml in TBS overnight at 4° C. After saturation of the wells with 5% BSA, a 200 μl aliquot of the buffy coat lysate in 1% octylglucoside/1 mM MnCl2/TBS was allowed to incubate for 2 h at 4° C. The wells were then washed five times with the octylglucoside-containing buffer. LLG-C4-GST or control GST was incubated at a concentration of 10 μg/ml in 25 mM octylglucoside TBS/1 mM MnCl2 for an hour. Following washing of the wells, the bound GST was determined with anti-GST antibodies (Amersham Pharmacia), which were labeled with an Eu^3+-chelate according to the instructions of the manufacturer (Wallac, Turku, Finland). The Eu^3+-fluorescence was measured with a 1230 Arcus fluorometer (Wallac). For examination of the I-domain binding, we used the recombinant αM I-domain expressed as a GST fusion protein in E. coli as described (Ueda et al., 1994). […] The I-domain was coated on microtiter wells at a concentration of 20 μg/ml, and the binding of LLG-C4-GST and GST was studied.
# [2] = system: THP-1 cells (β2 integrins); settings: for competition of THP-1 cell adhesion on LLG-C4-GST substratum: soluble pentapeptides, CLLGC at concentrations of 1 mM or higher
# Description: In FIG. 2(A), phorbol ester-activated THP-1 cells were allowed to bind for 60 min to microtiter wells coated with LLG-C4-GST, GST, or albumin. EDTA was included at a 2.5 mM concentration. The bound cells were determined by the assay measuring cellular phosphatase activity. The data are the means ±SD from triplicate wells.
# In FIG. 2(B), THP-1 cells were mixed with each antibody against the β1, β2, β3, αL, αM, or αX integrin subunit as indicated at a concentration of […]. An aliquot of cells was then transferred to wells coated with LLG-C4-GST and incubated for 60 min at 37° C. Following washing the bound cells were determined by the phosphatase assay. The results are the mean % adhesion ±SD of 2–4 independent experiments each done in triplicate wells.
# In FIG. 3(A), TBP-1 cells were mixed in suspension with the peptide containing either the C(1–8;3–9) or C(1–9;3–8) disulfide. The final concentrations of the peptides are indicated. Cells were then incubated for 60 min at 37° C. in microtiter wells coated with LLG-C4-GST. After washing the wells, the bound cells were quantitated by the phosphatase assay. The results are the mean ±SD from triplicate wells.
# In FIG. 3(B), THP-1 cell binding to LLG-C4-GST was examined in the presence of the C(1–8;3–9), CLLGC (SEQ ID NO: 4) or the CAAGC (SEQ ID NO: 5) peptide. The synthetic peptides were used at the concentrations indicated. Following a 60 min incubation the wells were washed and the bound cells were determined by the phosphatase assay.
# Fibrinogen, fibronectin, von Wrlnebrand factor, type IV collagen, GST fusion proteins, Fc fusion proteins or synthetic peptides were coated on microtiter wells at a concentration of 2 μg in 50 μl TBS unless otherwise indicated. A recombinant von Willebrand factor and a capturing antibody to it kindly provided by Drs. J. J. Sixma and Ph. G. de Groot (University Medical Center Utrecht, the Netherlands) were also used. To prepare polymerized peptides, glutaraldehyde was added at a final concentration of 0.25%. The wells were saturated with 5% BSA and then washed five times with PBS. Prior to adhesion assays, cells were treated with 50 nM 40-Phorbol 12,13-dibutyrate or with 200 μM P1 peptide (Kotovuori et al., 1999) in serum-free medium for 30 min at room temperature to activate the integrins. Alternatively, cells were stimulated for 60 min at 37° C. with the phorbol ester (50 nM) and the C(1–8;3–9) and RGD-4C peptides each at a 2.5 μM concentration, after which the peptides were removed by washing with PBS/2.5 mM EDTA. Cells were incubated in the microtiter wells (100 000 cells per well) for 60 min at 37° C. in the absence or presence of competing peptides, antibodies or EDTA. Unbound cells were removed by gently washing with PBS and pressing the plate against paper towels. The bound cells were determined by an assay measuring cellular phosphatase activity. Briefly, 100 μl of 50 mM sodium acetate buffer, pH 5.0, containing 1% Triton X-100 and 6 mg/ml p-nitrophenyl phosphate was added per well and incubated for 1 h at 37° C. The reaction was stopped with 50 μl of 1 M NaOH. The absorbance at 405 nm was read on a microplate reader. Alternatively, the attached cells were stained with Crystal Violet essentially as described (Mould et al., 1995).
# αM subunit I-domain = target: T2, αM subunit I-domain (Homo sapiens, UniProt P11215); experiment: I-domain binding assay; settings: for inhibition of LLG-C4-GST binding to the I-domain: LLG-C4-GST 10 μg/ml, peptides 100 μM, EDTA 2.5 mM; for binding to isolated I-domain of the αM subunit: 0.01–100 μg/ml, 60 min
# T2 construct: GST (cleaved yes); made in house; host or cells: E. coli
# Description: In FIG. 1(B), LLG-C4-GST or GST was incubated for 60 min in microtiter wells coated with purified αM subunit I-domain. The concentrations of GST proteins were as indicated. After washing, the bound GST was determined with anti-GST antibodies. The results are means ±SD from triplicate wells. The results were similar in two other experiments.
# After a 60 min incubation, the wells were washed and the binding was determined with anti-GST antibodies. The results are the means ±SD from triplicate wells.
# as §2
# [3] = system: THP-1 cells on von Willebrand factor; format: cell-based; settings: 500 μM; data not shown
# Description: In FIG. 5(A), THP-1 cell binding to von Wirebrand factor was examined in the presence of antibodies against the β2 (7E4), αvβ3 (LM609) or αIIbβ3 (P2) integrins. Following a 60 min incubation in von Willebrand factor-coated wells, the bound cells were determined. The data are the mean ±SD of triplicate wells. The experiment was repeated three times.
# In FIG. 5(B), TRP-1 cells were allowed to bind to microtiter wells coated with von Willebrand factor, type IV collagen, or fibronectin. The C(1–8;3–9) peptide was included as a competitor in the concentrations described. The bound cells were determined by the phosphatase assay. The data are the mean ±SD of triplicate wells and were similar in four other experiments.
# as §1
# αMβ2 integrin (Mac-1) = target: T3, αMβ2 integrin (Mac-1) (Homo sapiens, UniProt P11215); experiment: Phage display biopanning on purified integrin; format: binding; settings: phage bound to αMβ2 integrin, CX7C and CX9C libraries, randomly selected clones
# T3 construct: from tissue; host or cells: blood buffy coats (leukocytes)
# Description: The αMβ2 integrin was purified by antibody affinity chromatography from buffy coats obtained from Finnish Red Cross Blood Transfusion Service as described previously (Li et al., 1995). Integrin diluted in Tris-buffered saline (TBS)/1 mM MnCl2 was coated onto microtiter wells overnight at 4° C. using one μg per well in the first biopanning and 100, 10 and 1 ng in subsequent pannings. The wells were blocked with 5% BSA in TBS for 1 h at 22° C. and then washed five times with TBS. Biopanning was performed using CX7C and CX9C phage peptide libraries essentially as described (Koivunen et al., 1994). The construction of libraries was modified so that the single-stranded DNA encoding degenerate sequences was converted into a double-stranded form using 5 cycles of PCR with only the reverse primer and then 11 cycles with both the reverse and forward primer. A total of 6 μg of the double-stranded oligonucleotide was purified using QIAGEN PCR purification kit and ligated with 42 μg of the Fuse5 phage vector. The number of recombinants in the libraries was more than 10^9. Phage binding, elution and subsequent amplification in E. coli were repeated five times, and after each panning bacterial colonies were picked up and stored in a 10 μl volume of TBS in microtiter wells at −20° C. For direct colony sequencing, one μl aliquots of the thawed samples were subjected to PCR with 10 pmol each of the forward primer 5′ […] 3′ (SEQ ID NO: 9) and the reverse primer 5′ […] 3′ (SEQ ID NO: 10). The PCR conditions were 92° C. for 30 s, 60° C. for 30 s, and 72° C. for 60 s, and the cycle number was 35. One μl aliquot of the PCR reaction was taken for sequencing using 15 pmol of either one of the primers and analyzed on an ABI 310 apparatus (PE Applied Biosystems, Foster City, Calif.).
# After the fifh round of selection, the CX7C library gave a 600-fold enrichment and CX9C a 1000-fold enrichment of phage bound to the integrin in comparison to background. […] Four of them contained the LLG tripeptide motif. The two sequences most strongly enriched were CPCFLLGCC (SEQ ID NO: 3) (LLG-C4) and […] (SEQ ID NO: 11), each observed 15 times in the randomly selected clones, and these were the only clones remaining after searching for high affinity binders by using low integrin coating concentrations.
# THP-1 cells = experiment: Transwell cell migration assay, LLG-C4-GST-coated filters; format: cell-based; settings: 10% serum, 18 h
# Description: The in vitro migration of THP-1 cells was studied in closely physiological conditions containing 10% serum to not interfere with adhesive properties of cells. Both the upper and lower surfaces of 8 μm pore size Transwell filters were coated with fibrinogen, LLG-C4-GST, or GST at a concentration of 40 μg/ml overnight at 4° C. Free binding sites were blocked by incubation with 5% BSA/TBS. THP-1 cells (5×10^4 in 100 μl) were plated on the upper compartment in 10% FCS-containing medium. The C(1–8;3–9) or C(1–9;3–8) peptide were included at a concentration of 200 μM. The lower compartment was filled with 750 μl of 10% FCS-containing medium. Following a culture for 18 h at 37° C. the filters were immersed in methanol for 15 min, in water for 10 s, and in 0.1% toluidine blue for 5 min. The filters were then washed 3–5 times with water until cell staining was clear. Cells were removed from the upper surface of the filter with a cotton swap, and cells migrated on the lower surface were counted microscopically. Student's t-test was used for statistical analysis.
# [4] = system: L929, K562, SKOV-3, KS6717 and Eahy96 cells; experiment: Adhesion of non-leukocytic cell lines to immobilized peptide or fusion protein; format: cell-based; settings: cells pretreated with phorbol ester or not; data not shown
# Description: as §1
molecule,measurement,setting,value
"O=C(O)CN(CCN(CC(=O)O)CC(=O)O)CC(=O)O [EDTA, reference compound]",inhibition of binding of αXβ2-transfected L cells to LLG-C4-GST,[1]; competitor,inhibited
same,inhibition of LLG-C4-GST binding to immunocaptured αMβ2 integrin,αMβ2 integrin; EDTA present,inhibited the binding of LLG-C4-GST to the integrin
same,effect of EDTA on THP-1 binding on LLG-C4-GST,[2]; EDTA 2.5 mM,completely abolished the binding
same,inhibition of LLG-C4-GST binding to the I-domain,αM subunit I-domain,blocked the binding
CAAGC (Synthetic peptide seen in Fig. 3B) [reference compound],competition of THP-1 cell adhesion on LLG-C4-GST substratum,[2],weak competitor of cell adhesion
same,inhibition of THP-1 binding to von Willebrand factor at 500 μM,[3],not
CLLGC (Synthetic peptide seen in Fig. 3B),competition of THP-1 cell adhesion on LLG-C4-GST substratum,[2],readily inhibited cell adhesion
same,inhibition of THP-1 binding to von Willebrand factor at 500 μM,[3],inhibited
CPEDLYFFC (Phage sequence bound to the alphaMbeta2 integrin (Mac-1)),number of isolated nucleotide sequences encoding each peptide,αMβ2 integrin (Mac-1),(3)
CPPDLFWYC (Phage sequence bound to the alphaMbeta2 integrin (Mac-1)),number of isolated nucleotide sequences encoding each peptide,αMβ2 integrin (Mac-1),(4)
CWHKDLLGC (Phage sequence bound to the alphaMbeta2 integrin (Mac-1)),number of isolated nucleotide sequences encoding each peptide,αMβ2 integrin (Mac-1),(4)
CWKLLGSEEEC (Stronly enriched sequence),number of isolated nucleotide sequences encoding each peptide,αMβ2 integrin (Mac-1),(15)
same,number of isolated nucleotide sequences encoding each peptide,αMβ2 integrin (Mac-1); listed as CWKLGSEEEC,15
GST: control GST protein,binding of GST protein to immunocaptured αMβ2 integrin,αMβ2 integrin,not GST alone
same,binding to isolated I-domain of the αM subunit,αM subunit I-domain,did not bind
"LLG-C4 (1): air-oxidised synthetic biscyclic LLG-C4 preparation, highly active (CPCFLLGCC; disulfide (positions not given here))",inhibition of LLG-C4-GST binding to the I-domain,αM subunit I-domain,blocked the ability of the I-domain to bind the LLG-C4-GST
"LLG-C4 (2): synthetic LLG-C4 preparation, inactive apparently due to disadvantageous disulfide bonding (CPCFLLGCC; disulfide (positions not given here); not fully specified)",inhibition of LLG-C4-GST binding to the I-domain,αM subunit I-domain,did not inhibit LLG-C4-GST binding to the I-domain
LLG-C4-GST: LLG-C4 nonapeptide expressed as GST fusion protein in E. coli (CPCFLLGCC-{GST}; cysteine pairing not given here),difference in binding of αXβ2-transfected L cells to LLG-C4-GST vs. GST,[1]; p=0.016,statistically significant
same,binding of GST protein to immunocaptured αMβ2 integrin,αMβ2 integrin,bound to the αMβ2 integrin in a divalent cation-sensitive manner
same,binding of phorbol ester-activated THP-1 cells to coated protein,"[2]; protein coated on microtiter wells, 60 min",efficiently bound
same,cell migration on LLG-C4-GST compared with other coatings,THP-1 cells,more efficient than on fibronectin or fibrinogen coatings
same,fold more cells migrated on LLG-C4-GST substratum than on control GST substratum,THP-1 cells; filter coated at 40 μg/ml,Approximately 10 fold
same,binding of non-leukocytic cell lines not expressing β2 integrins,[4],showed no binding
same,binding to isolated I-domain of the αM subunit,αM subunit I-domain,concentration-dependent binding
